Like-named read-outs stand apart in the source and are kept apart here. Marks after values point to notes of the source that are not given here.
Key:
active GLP-1 = assay: Postprandial plasma active GLP-1 in healthy subjects; type: in vivo, human
serum glucose = assay: Postprandial serum glucose in healthy subjects; type: in vivo, human
whole blood insulin = assay: Postprandial whole blood insulin in healthy subjects; type: in vivo, human
[1] = Safety and tolerability assessment; type: in vivo, human
human DPP-VIII = details: selectivity; cited from earlier work
human DPP-IX = details: selectivity; cited from earlier work
human DPP-I = details: selectivity; cited from earlier work
human DPP-II = details: selectivity; cited from earlier work
[2] = system: fibroblast activation protein-alpha (FAPα); details: selectivity; cited from earlier work
[3] = system: antiphagocytic protein 1 (APP1); details: selectivity; cited from earlier work
prolidase = details: selectivity; cited from earlier work
granzyme B = details: selectivity; cited from earlier work
[4] = system: cytochrome P450 (CYP) 3A4; details: in vitro studies; cited from earlier work
CYP1A2 = details: in vitro studies; cited from earlier work
CYP2C9 = details: in vitro studies; cited from earlier work
CYP2C19 = details: in vitro studies; cited from earlier work
CYP2D6 = details: in vitro studies; cited from earlier work
CYP3A4 [5] = details: in vitro studies; cited from earlier work
CYP3A4 [6] = details: in vitro studies; cited from earlier work; remark: listed apart in the source
[7] = dose range 1.25–60 mg, healthy volunteers; cited from earlier work
high fat diet-fed mice = details: cited from earlier work
db/db mice = details: young leptin receptor-deficient db/db mice; cited from earlier work
[8] = system: streptozotocin-induced diabetic mice; details: cited from earlier work
[9] = cited from earlier work
[10] = baseline corrected, day 1, 5 mg
[11] = baseline corrected, day 1, 10 mg
[12] = baseline corrected, day 1, 20 mg
[13] = baseline corrected, day 10, 5 mg
[14] = baseline corrected, day 10, 10 mg
[15] = baseline corrected, day 10, 20 mg
[16] = baseline uncorrected, day 1, 5 mg
[17] = baseline uncorrected, day 1, 10 mg
[18] = baseline uncorrected, day 1, 20 mg
[19] = baseline uncorrected, day 10, 5 mg
[20] = baseline uncorrected, day 10, 10 mg
[21] = baseline uncorrected, day 10, 20 mg
[22] = 5 mg (N=8), judged to be related to the study drug
[23] = 5 mg once daily for 10 days (N=8)
[24] = 10 mg (N=8), judged to be related to the study drug
[25] = 10 mg once daily for 10 days (N=8)
[26] = 20 mg (N=8), judged to be related to the study drug
[27] = 20 mg once daily for 10 days (N=8)

CC(C)(C)OC[C@@H]1C(=O)NCCN1C(=O)C[C@H](N)Cc1cc(F)c(F)cc1F [Evogliptin]
Average AUEtotal (CV%) GLP-1 (active GLP-1; [10]): 25.7 (48.3) pM·h
Average AUEtotal (CV%) GLP-1 (active GLP-1; [11]): 24.9 (46.0) pM·h
Average AUEtotal (CV%) GLP-1 (active GLP-1; [12]): 45.3 (73.8) pM·h
Average AUEtotal (CV%) GLP-1 (active GLP-1; [13]): 25.4 (56.7) pM·h
Average AUEtotal (CV%) GLP-1 (active GLP-1; [14]): 22.2 (41.0) pM·h
Average AUEtotal (CV%) GLP-1 (active GLP-1; [15]): 35.5 (67.3) pM·h
Average AUEtotal (CV%) GLP-1 (active GLP-1; [16]): 55.8 (49.6) pM·h
Average AUEtotal (CV%) GLP-1 (active GLP-1; [17]): 55.0 (35.9) pM·h
Average AUEtotal (CV%) GLP-1 (active GLP-1; [18]): 82.8 (55.3) pM·h
Average AUEtotal (CV%) GLP-1 (active GLP-1; [19]): 75.7 (111.2) pM·h
Average AUEtotal (CV%) GLP-1 (active GLP-1; [20]): 52.6 (25.0) pM·h
Average AUEtotal (CV%) GLP-1 (active GLP-1; [21]): 72.8 (37.0) pM·h
reduction of baseline corrected AUEtotal of glucose compared to placebo (serum glucose; 5 mg): 20%
reduction of baseline corrected AUEtotal of glucose compared to placebo (serum glucose; 10 mg): 25%
reduction of baseline corrected AUEtotal of glucose compared to placebo (serum glucose; 20 mg): 35%
effect on fasting glucose levels (serum glucose; 5-20 mg): did not affect the fasting glucose levels
Average AUEtotal (CV%) Glucose (serum glucose; [10]): 264.1 (36.1) h·mg/dL
Average AUEtotal (CV%) Glucose (serum glucose; [11]): 234.9 (24.9) h·mg/dL
Average AUEtotal (CV%) Glucose (serum glucose; [12]): 229.7 (37.6) h·mg/dL
Average AUEtotal (CV%) Glucose (serum glucose; [13]): 259.4 (25.2) h·mg/dL
Average AUEtotal (CV%) Glucose (serum glucose; [14]): 242.8 (41.6) h·mg/dL
Average AUEtotal (CV%) Glucose (serum glucose; [15]): 209.3 (31.0) h·mg/dL
Average AUEtotal (CV%) Glucose (serum glucose; [16]): 741.3 (14.1) h·mg/dL
Average AUEtotal (CV%) Glucose (serum glucose; [17]): 747.3 (6.0) h·mg/dL
Average AUEtotal (CV%) Glucose (serum glucose; [18]): 747.8 (11.9) h·mg/dL
Average AUEtotal (CV%) Glucose (serum glucose; [19]): 759.6 (9.1) h·mg/dL
Average AUEtotal (CV%) Glucose (serum glucose; [20]): 751.4 (12.6) h·mg/dL
Average AUEtotal (CV%) Glucose (serum glucose; [21]): 727.0 (7.2) h·mg/dL
Average AUEtotal (CV%) Insulin (whole blood insulin; [10]): 238.3 (15.0) h·μIU/mL
Average AUEtotal (CV%) Insulin (whole blood insulin; [11]): 315.1 (35.7) h·μIU/mL
Average AUEtotal (CV%) Insulin (whole blood insulin; [12]): 223.3 (50.8) h·μIU/mL
Average AUEtotal (CV%) Insulin (whole blood insulin; [13]): 270.9 (36.0) h·μIU/mL
Average AUEtotal (CV%) Insulin (whole blood insulin; [14]): 410.2 (62.6) h·μIU/mL
Average AUEtotal (CV%) Insulin (whole blood insulin; [15]): 301.3 (28.6) h·μIU/mL
Average AUEtotal (CV%) Insulin (whole blood insulin; [16]): 274.9 (14.2) h·μIU/mL
Average AUEtotal (CV%) Insulin (whole blood insulin; [17]): 360.2 (30.6) h·μIU/mL
Average AUEtotal (CV%) Insulin (whole blood insulin; [18]): 264.7 (44.0) h·μIU/mL
Average AUEtotal (CV%) Insulin (whole blood insulin; [19]): 311.3 (32.0) h·μIU/mL
Average AUEtotal (CV%) Insulin (whole blood insulin; [20]): 460.3 (57.2) h·μIU/mL
Average AUEtotal (CV%) Insulin (whole blood insulin; [21]): 349.5 (24.7) h·μIU/mL
Cough, number of cases ([1]; 5 mg (N=8)): 1
Epigastric discomfort, number of cases ([1]; 5 mg (N=8)): 1
Eyeball pain, number of cases ([1]; 5 mg (N=8)): 1
Poor-quality sleep, number of cases ([1]; 5 mg (N=8)): 1
Rhinorrhea, number of cases ([1]; 5 mg (N=8)): 1
Sweating, number of cases ([1]; 5 mg (N=8)): 1
Throat irritation, number of cases ([1]; 5 mg (N=8)): 1
Vasovagal syncope, number of cases ([1]; 5 mg (N=8)): 1
Fatigue, number of cases [1, 22]: 1 ^a
Insomnia, number of cases [1, 22]: 1 ^a
% of subjects with AEs in a group [1, 23]: 50%
AEs, number of cases [1, 23]: 10
Musculoskeletal discomfort, number of cases ([1]; 10 mg (N=8)): 1
Pharyngitis, number of cases ([1]; 10 mg (N=8)): 1
Epigastric discomfort, number of cases [1, 24]: 1 ^a
Sweating, number of cases [1, 24]: 1 ^a
% of subjects with AEs in a group [1, 25]: 50%
AEs, number of cases [1, 25]: 5
Joint pain, number of cases ([1]; 20 mg (N=8)): 1
Prurigo, number of cases ([1]; 20 mg (N=8)): 1
Headache, number of cases [1, 26]: 1 ^a
Increased urinary frequency, number of cases [1, 26]: 1 ^a
% of subjects with AEs in a group [1, 27]: 37.5%
AEs, number of cases [1, 27]: 4
Serious AEs ([1]; 5-20 mg once daily for 10 days): No serious AEs were reported
Severity of AEs ([1]; 5-20 mg once daily for 10 days): all AEs were mild in severity
AEs, number of cases in subjects administered evogliptin ([1]; all evogliptin dose groups, 5-20 mg for 10 days): 19 cases
Subjects with AEs among those administered evogliptin ([1]; all evogliptin dose groups, eleven subjects): 45.8%
Tolerability of repeated administration ([1]; healthy subjects, 5–20 mg dose range): well tolerated
potency for DPP-IV compared to human DPP-VIII (human DPP-VIII): 6,000 times
potency for DPP-IV compared to human DPP-IX (human DPP-IX): 6,000 times
potency for DPP-IV compared to human DPP-I (human DPP-I): more than 20,000 times
potency for DPP-IV compared to human DPP-II (human DPP-II): more than 20,000 times
potency for DPP-IV compared to FAPα [2]: more than 20,000 times
potency for DPP-IV compared to APP1 [3]: more than 20,000 times
potency for DPP-IV compared to prolidase (prolidase): more than 20,000 times
potency for DPP-IV compared to granzyme B (granzyme B): more than 20,000 times
induction of CYP3A4 [4]: not an inducer
inhibition of CYP1A2 (CYP1A2): nor an inhibitor
inhibition of CYP2C9 (CYP2C9): nor an inhibitor
inhibition of CYP2C19 (CYP2C19): nor an inhibitor
inhibition of CYP2D6 (CYP2D6): nor an inhibitor
inhibition of CYP3A4 (CYP3A4 [5]): nor an inhibitor
enzyme mediating metabolism (CYP3A4 [6]): primarily mediated by CYP3A4
dose proportionality of PKs after single dose [7]: dose-proportional PKs
tolerability after single dose [7]: good tolerability
effect on insulin sensitivity (high fat diet-fed mice): improved insulin sensitivity
effect on onset of diabetes (db/db mice): delayed the onset of diabetes
effect on β-cell replication and neogenesis [8]: increased β-cell replication and neogenesis
interindividual variability (CV%) of AUCτ,ss (5-20 mg): < 20%
interindividual variability (CV%) of Cmax,ss (5-20 mg): < 30%
time to attain steady state (all dosage groups, once daily): ≤ 3 days
fess (fraction of the administered drug excreted into the urine at the steady state) (day 10, 5 mg once daily, mean ± SD): 0.34±0.08
fess (fraction of the administered drug excreted into the urine at the steady state) (day 10, 10 mg once daily, mean ± SD): 0.27±0.12
fess (fraction of the administered drug excreted into the urine at the steady state) (day 10, 20 mg once daily, mean ± SD): 0.27±0.04
CLss/F (day 10, steady state, 5 mg once daily, mean ± SD): 49.4 ± 9.6 L/h
CLss/F (day 10, steady state, 10 mg once daily, mean ± SD): 63.4 ± 10.7 L/h
CLss/F (day 10, steady state, 20 mg once daily, mean ± SD): 54.3 ± 8.6 L/h
Tmax (human, in vivo): 4 to 5 h
AUC(0-t) (human, in vivo, 5 mg): 0.073 ± 0.0153 µg·h/mL
Cmax (human, in vivo, 5 mg, Cmax, day 1, 5 mg, mean ± SD): 4.9 ± 1.8 ng/mL
Cmax (human, in vivo, 5 mg, Cmax,ss, day 10, steady state, 5 mg once daily, mean ± SD): 6.7 ± 1.9 ng/mL
half-life (human, in vivo, 5 mg, t1/2,ss, day 10, steady state, 5 mg once daily, mean ± SD): 32.9 ± 6.1 h
AUC(0-t) (human, in vivo, 10 mg): 0.118 ± 0.0242 µg·h/mL
Cmax (human, in vivo, 10 mg, Cmax, day 1, 10 mg, mean ± SD): 9.5 ± 2.1 ng/mL
AUC(0-t) (human, in vivo, 20 mg): 0.254 ± 0.044 µg·h/mL
Cmax (human, in vivo, 20 mg, Cmax, day 1, 20 mg, mean ± SD): 21.7 ± 3.7 ng/mL
Tmax (human, in vivo, po, 5 mg): 5.1 h
Tmax (human, in vivo, po, 10 mg): 5 h
Tmax (human, in vivo, po, 20 mg): 4.5 h
dose linearity of PKs (within the 5–20 mg dose range, repeated administration): linear PKs

CC#CCn1c(N2CCC[C@@H](N)C2)nc2c1c(=O)n(Cc1nc(C)c3ccccc3n1)c(=O)n2C [linagliptin]
terminal elimination half-life [9]: 120 h

Reference: publication PMC4199987 (Drug Design, Development and Therapy, 2014)
